This assay has as its target T1, vitronectin receptor αvβ3 (Homo sapiens, UniProt P05106+P06756).
T1 construct: Human placenta is stored at -80°C immediately after its excision; In order to extract the receptor; from tissue; host or cells: human placenta
In words: Inhibition of fibrinogen binding to immobilised vitronectin receptor αvβ3 (ELISA). Conditions: fibrinogen 1.5 µg/ml, receptor from human placenta coated on microtitre plates, overnight at room temperature, ELISA detection; read-out: VNR IC50. Here is the method: The inhibition of the binding of adhesive proteins such as e.g. fibrinogen to vitronectin receptors (such as e.g. αvβ3, αvβ5, αvβ6, αvβ8, etc. or to the fibrinogen receptor (αIIbβ3) by compounds of formula I can be determined as described by L. Alig et al. (J.Med.Chem. 1992, 35, 4393-4407).
In detail thereto, the wells of microtitre plates (Nunc-Immunoplate MaxiSorp) were coated overnight at 4°C with the vitronectin receptor αvβ3 (from human placenta, 100 µl/well) in a buffer system with 150 mmol/l NaCl, 1 mmol/CaCl2, 1 mmol/l MgCl2, 0.0005% Triton X-100 and 20 mmol/l Tris HCl, pH 7.4. The non-specific binding sites were blocked by incubation with 3.5% bovine serum albumin (BSA from Fluka) at 20°C for at least 1 h. Before the beginning of the test the plates were washed in each case once with 150 mmol/l NaCl, 1 mmol/l CaCl2, 1 mmol/l MgCl2 and 20 mmol/l Tris HCI, pH 7.4 (buffer A). The thus-coated plates can be stored for at least 2 months in the presence of 0.05% NaN3 (in buffer A) at 4°C in a humidity chamber without loss of binding activity. Fibrinogen (IMCO, free from fibronectin) was diluted to 1.5 µg/ml in buffer A in the presence of 1% BSA. The wells coated with the receptor were incubated with fibrinogen (100 µl/well) overnight at room temperature in the absence of or in the presence of increasing concentrations of RGDS (as the reference substance) or the compounds to be measured. Non-bound fibrinogen was removed by three-fold washing with buffer A and bound fibrinogen was detected by an ELISA procedure. Antibodies of rabbits directed against human fibrinogen (Dakopatts, Denmark), diluted in buffer A in the presence of 0.1% BSA, were added at room temperature for 1h., followed by incubation with biotinylated antibodies directed against rabbit immunoglobulin (Amersham) for 30 min. Non-bound antibodies were removed by three-fold washing with buffer A. Thereafter, the pre-formed streptavidin-biotinylated peroxidase complex (Amersham) was added for 30 min. Three-fold washing with buffer A was again carried out. After addition of the peroxidase substrate ABTS (2,2'-azino-bis(3-ethylbenzothiazoline-6-sulphonic acid), Boehringer Mannheim) the enzyme activity was measured with a multichannel photometer (UVmax, Molecular Devices). The difference between total binding activity (in the absence of a test substance) and non-specific binding activity (in the presence of 100 µM RGDS) is taken as the specific binding activity. The concentration of a test substance which is required to inhibit the specific binding activity by 50% was defined as the IC50.
The isolation of the receptor avb3 used in the test can be carried out as follows: Human placenta is stored at -80°C immediately after its excision. In order to extract the receptor, each placenta is superficially thawed and cut into narrow strips with a scalpel. The pieces are washed twice with a buffer of 150 mmol/l NaCl, 1 mmol/l CaCl2, 1 mmol/l MgCl2 and 20 mmol/l Tris HCl (pH 7.4). The proteins are extracted at room temperature for one hour with a buffer solution from 1% Triton X-100, 150 mmol/l NaCl, 1 mmol/l CaCl2, 1 mmol/l MgCl2, 20 mmol/l Tris HCl, 0.02% NaN3, 0.5 mmol/l phenylmethanesulphonyl fluoride, 1 mmol/l leupeptin and 2 mmol/l N-ethylmaleimide (pH 7.4) and filtered through sterile gauze. The filtrate is centrifuged at 30000 g for 30 min. at 4°C. The glycoproteins are firstly separated with the aid of a concanavalin A-Sepharose 4B column. The proteins bound to the column are eluted and then added to a Aeg-RGDS column. After repeated washing the bound vitronectin receptor is eluted by 3 mmol/l RGDS in a buffer of 0.1% Triton X-100, 150 mmol/l NaCl, 20 mmol/l Tris HCl, 1 mmol/l CaCl2, 1 mmol/l MgCl2, 0.05% NaN3 (pH 7.0).
A general note: An ELISA detects its analyte on a solid surface through an enzyme-linked reagent.
T1 sequence (P06756 31-889 limits assumed): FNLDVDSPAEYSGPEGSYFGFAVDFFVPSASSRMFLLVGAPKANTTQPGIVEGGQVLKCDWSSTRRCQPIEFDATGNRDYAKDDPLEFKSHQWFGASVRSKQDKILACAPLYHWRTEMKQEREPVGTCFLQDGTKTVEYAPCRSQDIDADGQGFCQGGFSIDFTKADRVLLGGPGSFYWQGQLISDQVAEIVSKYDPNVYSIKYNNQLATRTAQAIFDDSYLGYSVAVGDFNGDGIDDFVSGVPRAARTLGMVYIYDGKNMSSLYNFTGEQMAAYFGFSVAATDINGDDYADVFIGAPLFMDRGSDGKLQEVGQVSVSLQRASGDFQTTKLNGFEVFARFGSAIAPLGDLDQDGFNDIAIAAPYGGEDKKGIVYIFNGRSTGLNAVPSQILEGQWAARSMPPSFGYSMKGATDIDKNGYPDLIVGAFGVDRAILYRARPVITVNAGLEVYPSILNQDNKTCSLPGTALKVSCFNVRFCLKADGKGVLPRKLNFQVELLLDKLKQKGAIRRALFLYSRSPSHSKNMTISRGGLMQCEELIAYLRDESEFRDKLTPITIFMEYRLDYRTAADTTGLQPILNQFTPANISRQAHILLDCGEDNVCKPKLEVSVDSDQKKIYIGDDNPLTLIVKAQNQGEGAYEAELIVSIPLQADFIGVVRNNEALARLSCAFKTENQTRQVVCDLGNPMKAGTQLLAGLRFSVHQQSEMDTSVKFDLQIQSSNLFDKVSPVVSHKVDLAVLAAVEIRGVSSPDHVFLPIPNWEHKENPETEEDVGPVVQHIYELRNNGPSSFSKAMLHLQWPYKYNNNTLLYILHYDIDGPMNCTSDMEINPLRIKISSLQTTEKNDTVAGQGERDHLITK
T1 sequence (P06756 891-1048 partner limits assumed): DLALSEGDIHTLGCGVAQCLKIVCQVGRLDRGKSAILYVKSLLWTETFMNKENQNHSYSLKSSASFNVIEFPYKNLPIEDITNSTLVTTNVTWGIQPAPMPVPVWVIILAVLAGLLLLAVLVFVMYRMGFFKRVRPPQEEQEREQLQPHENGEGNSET
T1 sequence (P05106 27-788): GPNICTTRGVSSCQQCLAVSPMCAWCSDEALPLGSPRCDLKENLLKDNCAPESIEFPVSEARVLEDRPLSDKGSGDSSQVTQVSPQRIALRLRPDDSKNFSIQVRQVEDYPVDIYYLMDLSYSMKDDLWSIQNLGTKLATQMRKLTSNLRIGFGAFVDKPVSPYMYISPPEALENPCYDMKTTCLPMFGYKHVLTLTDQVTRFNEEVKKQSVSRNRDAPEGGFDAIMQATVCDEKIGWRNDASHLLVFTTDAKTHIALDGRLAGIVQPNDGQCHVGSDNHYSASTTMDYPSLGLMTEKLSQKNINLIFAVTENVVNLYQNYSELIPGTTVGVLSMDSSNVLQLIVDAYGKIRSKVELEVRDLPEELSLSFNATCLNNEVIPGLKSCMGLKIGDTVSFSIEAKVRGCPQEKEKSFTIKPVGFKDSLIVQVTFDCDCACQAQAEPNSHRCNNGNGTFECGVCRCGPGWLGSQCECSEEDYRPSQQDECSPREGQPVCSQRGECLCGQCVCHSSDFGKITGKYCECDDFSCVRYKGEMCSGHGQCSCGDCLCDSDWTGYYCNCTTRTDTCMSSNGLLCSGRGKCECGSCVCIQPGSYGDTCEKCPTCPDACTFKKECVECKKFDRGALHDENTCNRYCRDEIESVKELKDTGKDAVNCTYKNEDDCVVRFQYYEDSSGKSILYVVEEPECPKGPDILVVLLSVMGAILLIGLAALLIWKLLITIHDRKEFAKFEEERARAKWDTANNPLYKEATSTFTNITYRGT
One may read the IC50 as the concentration that inhibits the measured activity by half. For `Cc1nc(N=C(N)N)sc1C(=O)N1CCCC(COCC(=O)O)C1` (racemic) [rac [1-(2-guanidino-4-methyl-thiazole-5-carbonyl)-piperidin-3-ylmethoxy]-acetic acid], the IC50 amounted to 39 nM. In the case of `NC(N)=Nc1nc(-c2ccccc2)c(C(=O)N2CCCC(COCC(=O)O)C2)s1` (racemic) [rac [1-(2-guanidino-4-phenyl-thiazole-5-carbonyl)-piperidin-3-ylmethoxy]-acetic acid] it was 70 nM; in that of `CCCc1nc(N=C(N)N)sc1C(=O)N1CCCC(COCC(=O)O)C1` (racemic) [rac [1-(2-guanidino-4-propyl-thiazole-5-carbonyl)-piperidin-3-ylmethoxy]-acetic acid], 18 nM; in that of `NC(N)=Nc1nc(C2CCCC2)c(C(=O)N2CCCC(COCC(=O)O)C2)s1` (racemic) [rac [1-(4-cyclopentyl-2-guanidino-thiazol-5-ylcarbonyl)-piperidin-3-ylmethoxy]-acetic acid], 90 nM. For the compound `CC(C)(C)c1nc(N=C(N)N)sc1C(=O)N1CCCC(COCC(=O)O)C1` (racemic) [rac [1-(4-tert-butyl-2-guanidino-thiazole-5-carbonyl)-piperidin-3-ylmethoxy]-acetic acid], the IC50 was 22 nM. On to `Cc1nc(NC(=N)N)sc1C(=O)N1CCC[C@@H](COCC(=O)O)C1` [(R)-[1-(2-guanidino-4-methyl-thiazole-5-carbonyl)-piperidin-3-ylmethoxy]-acetic acid], for which the IC50 was determined as 50 nM.
